Measured values published in US7638540B2, “Benzofuran compound and medicinal composition containing the same” (The New Industry Research Organization, priority 2003, dated 2009).

How the values were obtained:
human BLT2 = biological target: T1, human BLT2 (Homo sapiens, UniProt Q9NPC1); assay: LTB4-induced increase in intracellular calcium ion concentration in CHO cells expressing human BLT2 (Fluo-3, Flexstation); assay type: cell-based; details: LTB4 100 nM final; for Suppressive effect on increase in intracellular calcium ion concentration compared with ZK158252 (in words): compound 10 μM final
T1 construct: expressed in transfected cells; host or cells: CHO cells
T1 sequence (Q9NPC1 1-358): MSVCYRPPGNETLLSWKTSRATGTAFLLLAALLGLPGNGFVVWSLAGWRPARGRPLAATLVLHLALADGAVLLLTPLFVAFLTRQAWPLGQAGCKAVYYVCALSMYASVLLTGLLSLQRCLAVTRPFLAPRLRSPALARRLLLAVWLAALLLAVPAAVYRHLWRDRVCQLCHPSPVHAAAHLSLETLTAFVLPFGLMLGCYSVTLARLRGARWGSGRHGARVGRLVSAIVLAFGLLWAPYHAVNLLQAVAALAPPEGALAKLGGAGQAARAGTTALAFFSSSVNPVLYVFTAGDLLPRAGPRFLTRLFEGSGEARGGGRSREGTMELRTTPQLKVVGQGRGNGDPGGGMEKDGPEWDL
Protocol: (§1) CHO cells habouring a gene encoding human BLT1 or human BLT2 and functionally expressing the receptor were seeded in a 96 well plate at 4×10^4 cells/well, and cultured at 37° C. for 60 min. The culture supernatant was removed and a loading buffer (100 μl) containing 4 μM Fluo-3 (manufactured by Dojindo), 0.04% pluoronic acid (manufactured by Sigma) and 1% serum was added. The mixture was culture at 37° C. for 30 min to introduce Fluo-3 into the cells. After culture, the cells were washed with a buffer, and a buffer containing various compounds (10 μM (final concentration)) was added, and then 100 nM (final concentration) of LTB4 was added. Changes in the intracellular calcium ion concentration were measured with Flexstation (manufactured by Molecular Devices Corporation) as increase in the fluorescence intensity (area under a curve in a time-course graph of fluorescence intensity in 10 min measurement). As a positive control of BLT1 and BLT2 antagonists, ZK158252 was used.

LTB4 receptor = assay: TXB2 release from guinea pig eosinophils stimulated with LTB4 (LTB4 receptor antagonist activity); assay type: cell-based; details: 10^−3 M test compound (37.5 μl) added to 300 μl cell suspension, then 10^−7 M LTB4 (37.5 μl), 37° C. 15 min, positive control 100, negative control 0, N.D. = TXB2 concentration at measurement limit or less
Protocol: The LTB4 receptor antagonist activity of the test compound was examined using, as an index, thromboxane B2 (TXB2) released when stimulating eosinophil of guinea pig with LTB4.
Based on the method described in Japanese Journal of Pharmacology, vol. 70, p. 337-345 (1996) etc., eosinophils of guinea pig were prepared. A cell suspension (300 μl, 1.25×10^6 cells/ml) was placed in a 5 ml polypropylene test tube and, after incubation at 37° C. for 5 min., 10^−3 M test compound (37.5 μl) dissolved in 0.1% DMSO aqueous solution was added and the cells were continuously cultured for 5 min. Then, 10^−7 M LTB4 (37.5 μl) was added to induce the reaction and the cells were incubated at 37° C. for 15 min. The reaction was quenched in ice water, and the culture was centrifuged at 4° C., 3000 rpm for 10 min. The obtained supernatant was prepared as a sample for TXB2 measurement, and preserved at −80° C. before use for the measurement. The quantitation of TXB2 was performed using a TXB2 enzyme immunoassay kit (manufactured by Cayman Chemical Company). The release ratio (%) of TXB2 from the eosinophils was determined by the following formula: release ratio (%) of TXB2=[(average value of test compound administration group−average value of negative control group)/(average value of positive control group−average value of negative control group)]×100
As used herein, the positive control group means a group to which stimulation with LTB4 was applied but the same volume of a medium was given instead of the test compound, and the negative control group means a group to which stimulation with LTB4 was not applied, the same volume of a medium was given instead of LTB4, and the same volume of a medium was given instead of the test compound. When the release ratio of TXB2 is smaller than 0, it means that the measured TXB2 concentration was lower than that of the negative control group. When the TXB2 concentration in the sample was the measurement limit or less, N.D. is indicated.

human BLT1 = biological target: T2, human BLT1 (Homo sapiens, UniProt Q15722); assay: LTB4-induced increase in intracellular calcium ion concentration in CHO cells expressing human BLT1 (Fluo-3, Flexstation); assay type: cell-based; details: CHO cells with human BLT1; LTB4 100 nM final; compound 10 μM final
T2 construct: expressed in transfected cells; host or cells: CHO cells
Protocol: as §1

T2 sequence (Q15722 whole entry): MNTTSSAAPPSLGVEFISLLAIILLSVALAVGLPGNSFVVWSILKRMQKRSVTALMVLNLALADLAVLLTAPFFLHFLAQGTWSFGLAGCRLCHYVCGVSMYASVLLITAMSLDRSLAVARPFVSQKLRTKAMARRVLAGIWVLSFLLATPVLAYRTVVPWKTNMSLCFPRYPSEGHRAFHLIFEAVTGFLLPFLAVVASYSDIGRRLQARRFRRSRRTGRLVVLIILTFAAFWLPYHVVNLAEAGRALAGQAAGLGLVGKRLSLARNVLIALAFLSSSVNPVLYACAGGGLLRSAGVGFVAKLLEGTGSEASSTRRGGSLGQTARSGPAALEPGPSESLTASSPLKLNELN

Row | melting point | Suppression of increase in intracellular calcium ion concentration due to LTB4 stimulation (in words) (human BLT2; CHO cells with human BLT2, positive control antagonist) | Suppression of increase in intracellular calcium ion concentration due to LTB4 stimulation (in words) (human BLT1) | SMILES | Suppressive effect on increase in intracellular calcium ion concentration compared with ZK158252 (in words) (human BLT2) | Amount of TXB2 release (%) (LTB4 receptor)
1 | 194 to 195.1 °C | – | – | COc1ccc(NC(=O)/C=C/c2oc3ccc(OC)cc3c2-c2ccc(Cl)cc2)cc1 [Example 141, (E)-3-[3-(4-chlorophenyl)-5-methoxybenzofuran-2-yl]-N-(4-methoxyphenyl)acrylamide] | almost of the same level as or not less than that by ZK158252 | –
2 | 140.1 to 142 °C | – | – | COc1cccc2cc(/C(Cl)=C/C=C/C(=O)N(C(C)C)C(C)C)oc12 [Example 142, (2E,4Z)-5-chloro-5-(7-methoxybenzofuran-2-yl)penta-2,4-dienoic acid diisopropylamide] | almost of the same level as or not less than that by ZK158252 | –
3 | 229.5 to 231 °C | – | – | COc1ccc2oc(-c3csc(NC(=O)/C(C#N)=C(/C)O)n3)c(-c3ccc(Cl)cc3)c2c1 [Example 222, (Z)-2-cyano-3-hydroxy-2-butenoic acid {4-[3-(4-chlorophenyl)-5-methoxybenzofuran-2-yl]thiazol-2-yl}amide] | almost of the same level as or not less than that by ZK158252 | –
4 | – | significantly suppressed | significantly suppressed | O=C(O)CCC/C=C1\CCCCC1/C=C/C=C/C(O)C1(CC#Cc2ccccc2)CCC1 (centres unmarked) [ZK158252, reference compound] | – | –
5 | 142.7 to 144.3 °C | – | – | COc1ccc2oc(-c3csc(N=CN(C)C)n3)c(-c3ccc(Cl)cc3)c2c1 [Example 219, N′-{4-[3-(4-chlorophenyl)-5-methoxybenzofuran-2-yl]thiazol-2-yl}-N,N-dimethylformamidine] | almost of the same level as or not less than that by ZK158252 | –
6 | 142.2 to 144.4 °C | – | – | COc1cccc2cc(/C(Cl)=C/C=C/C(=O)N3CCCCC3)oc12 [Example 144, (2E,4Z)-5-chloro-5-(7-methoxybenzofuran-2-yl)-1-piperidin-1-ylpenta-2,4-dien-1-one] | almost of the same level as or not less than that by ZK158252 | –

Second part, the compound before the results:

Row | SMILES | melting point | Suppression of increase in intracellular calcium ion concentration due to LTB4 stimulation (in words) (human BLT2; CHO cells with human BLT2, positive control antagonist) | Suppression of increase in intracellular calcium ion concentration due to LTB4 stimulation (in words) (human BLT1) | Suppressive effect on increase in intracellular calcium ion concentration compared with ZK158252 (in words) (human BLT2) | Amount of TXB2 release (%) (LTB4 receptor)
7 | C/C(O)=C(\C#N)C(=O)Nc1c(C(=O)c2ccc(Cl)cc2)oc2ccc(Br)cc12 [Example 98, (Z)-N-[5-bromo-2-(4-chlorobenzoyl)benzofuran-3-yl]-2-cyano-3-hydroxy-2-butenamide] | 263.3 to 265.3 °C | – | – | almost of the same level as or not less than that by ZK158252 | –
8 | CCOC(=O)CCCOc1cccc2cc(/C(C)=C/C(=O)NCCc3ccc(OC)c(OC)c3)oc12 [Example 49, Ethyl (E)-4-(2-{2-[2-(3,4-dimethoxyphenyl)ethylcarbamoyl]-1-methylvinyl}benzofuran-7-yloxy)butyrate] | 114 to 115.5 °C | – | – | almost of the same level as or not less than that by ZK158252 | 2.37%
9 | CCN(CC)C(=O)/C=C(\C)c1cc2cccc(OC(C)C)c2o1 [Example 33, (E)-3-(7-isopropoxybenzofuran-2-yl)-N,N-diethyl-2-butenamide] | – | – | – | almost of the same level as or not less than that by ZK158252 | −0.199%
10 | CCOC(=O)CCCOc1cccc2cc(/C(C)=C\C(=O)Nc3ccc(OC)c(OC)c3)oc12 [Example 46, Ethyl (Z)-4-{2-[2-(3,4-dimethoxyphenylcarbamoyl)-1-methylvinyl]benzofuran-7-yloxy}butyrate] | 101.5 to 105 °C | – | – | almost of the same level as or not less than that by ZK158252 | 45.62%
11 | CCOC(=O)CCCOc1cccc2cc(/C(C)=C/C(=O)N(CC)CC)oc12 [Example 224, Ethyl (E)-4-[2-(2-diethylcarbamoyl-1-methylvinyl)benzofuran-7-yloxy]butyrate] | – | – | – | almost of the same level as or not less than that by ZK158252 | –
12 | CCOC(=O)CCCOc1cccc2cc(/C(C)=C/C(=O)N3CCOCC3)oc12 [Example 30, Ethyl (E)-4-[2-(1-methyl-3-morpholino-3-oxo-1-propenyl)benzofuran-7-yloxy]butyrate] | 90 to 94.8 °C | – | – | almost of the same level as or not less than that by ZK158252 | 0.086%
13 | COc1cccc(NC(=O)/C=C(\C)c2cc3cccc(OCCCC(=O)O)c3o2)c1 [Example 29, (E)-4-{2-[2-(3-methoxyphenylcarbamoyl)-1-methylvinyl]benzofuran-7-yloxy}butyric acid] | 155.5 to 157.5 °C | – | – | almost of the same level as or not less than that by ZK158252 | −0.19%
